Assay results taken from US12613249B2 (THE ROYAL INSTITUTION FOR THE ADVANCEMENT OF LEARNING / …, priority 2019, dated 2026).
Square brackets hold non-standard residues; d marks the D form. Peptide text beside a SMILES is read from it.

Experiments:
[1] = Ex-vivo stability in mouse plasma, MALDI-TOF MS; assay type: in vitro ADME, C57BL/6 mice; conditions: 37° C., 24 h
Procedure: The stability of D-AIP in mouse plasma, blood and liver S-9 fraction was investigated to ascertain the metabolic resistance towards proteases and enzymatic activities in these matrices. Whole mouse blood obtained from healthy C57BL/6 male and female mice (6 mice in total) were collected in lithium heparin containing tubes, pooled and stored at 4° C. prior to its use. A fraction of the pooled blood was immediately centrifuged at 1500×g for 10 min at 4° C. to obtain the plasma. The whole blood and plasma samples were spiked with PBS (as control) or AIP (L-AIP, D-AIP or sD-AIP respectively) to make a final concentration of 1 ug/mL and incubated at 37° C. Initial samples were withdrawn to represent t=0 prior to incubation and others were withdrawn 1, 3 and 24 h respectively. Fresh mouse liver also obtained from C57BL/6 male and female mice were pooled, homogenized in 0.15 M Potassium chloride (KCl) and centrifuged at 9000×g. […] The samples were then vigorously mixed for 30 s to facilitate extraction and centrifuged for 10 minutes at 13000 rpm, the supernatant was subjected to sample clean up by C18 ZipTip (EMD Millipore Corporation), the eluates were spotted with CHCA matrix on the ground steel MALDI-TOF target and analyzed with MALDI-TOF MS. […]

[2] = Ex-vivo stability in mouse whole blood, MALDI-TOF MS; assay type: in vitro ADME
Procedure: The stability of D-AIP in mouse plasma, blood and liver S-9 fraction was investigated to ascertain the metabolic resistance towards proteases and enzymatic activities in these matrices. Whole mouse blood obtained from healthy C57BL/6 male and female mice (6 mice in total) were collected in lithium heparin containing tubes, pooled and stored at 4° C. prior to its use. A fraction of the pooled blood was immediately centrifuged at 1500×g for 10 min at 4° C. to obtain the plasma. The whole blood and plasma samples were spiked with PBS (as control) or AIP (L-AIP, D-AIP or sD-AIP respectively) to make a final concentration of 1 ug/mL and incubated at 37° C. Initial samples were withdrawn to represent t=0 prior to incubation and others were withdrawn 1, 3 and 24 h respectively. Fresh mouse liver also obtained from C57BL/6 male and female mice were pooled, homogenized in 0.15 M Potassium chloride (KCl) and centrifuged at 9000×g. The supernatant represents liver homogenate (S-9) fraction which was mixed with other buffers to formulate the liver S-9 mix as previously described (Kolrep et al., 2017, Toxicol In Vitro, 42:161-170). Liver S-9 mix were spiked with AIP to make a final concentration of 1 μg/mL (L-AIP, D-AIP or sD-AIP respectively) and incubated at 37° C. Just after the addition of NADPH, 100 μL aliquot which represents t=0 samples were withdrawn and others were sampled accordingly at predetermined time points. 400 μL of ice cold MeOH was added to the spiked plasma, blood or liver S-9 fraction respectively, to precipitate the microsomal protein. The samples were then vigorously mixed for 30 s to facilitate extraction and centrifuged for 10 minutes at 13000 rpm, the supernatant was subjected to sample clean up by C18 ZipTip (EMD Millipore Corporation), the eluates were spotted with CHCA matrix on the ground steel MALDI-TOF target and analyzed with MALDI-TOF MS. Applying the t=0 peak area as 100% the intensities of the other time points were compared relatively for interpretation. […]

[3] = Tolerability of single oral doses; assay type: in vivo, C57BL/6 mice; conditions: single oral doses of 10, 30 and 100 mg/kg, female and male mice
Source text: Animal care and all animal experiments were undertaken with federal guidelines and approval of the Institutional Animal Ethical Committee of McGill University, Montreal, Canada (Protocol Application Number: 2017-7880) and adequate measures were taken to minimize pain or discomfort. C57BL/6 mice were purchased from Charles River laboratories, a total of 144 healthy (7-9 weeks old) male and female (20-25 g) were grouped accordingly and housed in polycarbonate cages, (three mice per cage per sex) in air-conditioned rooms with a 12 h light/dark cycle. Animals were allowed unlimited access to drinking water and standard mouse chow during the study. Animals (n=3) were orally dosed with D-AIP using an oral gavage at 10, 30 and 100 mg/kg respectively prepared in phosphate buffered saline (PBS). […] Pharmacokinetic parameters area under the curve (AUC), maximum concentration reached (Cmax), time at which maximum concentration is reached (Tmax). elimination rate constant (A), elimination half-life (t1/2), apparent total clearance from plasma after oral administration (CI/F), apparent volume of distribution (Vd) and mean residence time (MRT) were calculated using PKSolver, a freely available menu-driven add-in program for Microsoft Excel written in Visual Basic for Applications (VBA), for solving problems in pharmacokinetics.

C[C@H](O)[C@@H](NC(=O)CNC(=O)[C@H](N)CCCNC(=N)N)C(=O)N[C@H](Cc1ccccc1)C(=O)N[C@H](CCC(=O)O)C(=O)NCC(=O)N[C@H](CCCCN)C(=O)N[C@H](Cc1ccccc1)C(=O)O [D-AIP] (H-[dR]G[dT][dF][dE]G[dK][dF]-OH; N-terminus and C-terminus assumed)
stability, MALDI-TOF MS signal (941 m/z) [1]: relatively stable over 24 h | stability, MALDI-TOF MS signal (941 m/z) ([2]; 37° C., 24 h): relatively stable up to 24 h | metabolised at 24 h, 1 ug/mL ([2]; both sexes, C57BL/6, 24 h incubation, read-out: decrease of signal): ~50% | tolerability [3]: well-tolerated with no detectable vital signs of abnormalities
